Laboratory results: patent US11629141B2, “Proteasome inhibitors and uses thereof” (CORNELL UNIVERSITY, priority 2015, dated 2023)
Entries after “also recorded” stand apart in the source; their conditions may differ. Where two headings read alike, the source gives them in different places.

Assays:
[1] = molecular target: T1, human immunoproteasome β5i (Homo sapiens, UniProt P28062); experiment: IC50 against chymotryptic β5i activity of human immunoproteasome (96-well plate, Ac-ANW-AMC); type: biochemical
T1 construct: purchased Boston Biochem Inc
Method: A 96-well-plate assays were used to determine the IC50s against the chymotryptic β5 activities of the proteasomes. Both human constitutive proteasome and immunoproteasome were purchased from Boston Biochem Inc. 1 μL of 100× compound in DMSO at designated concentrations were spotted at the bottom of the wells. DMSO was used as a control. […] The hydrolysis of the substrate over time in each well was monitored at excitation 360 nm, emission 460 nm for 90 minutes. IC50s were estimated by fitting the velocities of hydrolysis against compound concentrations using PRISM. […] SDS (0.02%) was used as activator, and 0.01% BSA was used in the reaction buffer.

[2] = molecular target: T2, human constitutive proteasome β5c (Homo sapiens, UniProt P28074); experiment: IC50 against chymotryptic β5c activity of human constitutive proteasome (96-well plate, Suc-LLVY-AMC); type: biochemical
T2 construct: purchased Boston Biochem Inc
Method: A 96-well-plate assays were used to determine the IC50s against the chymotryptic β5 activities of the proteasomes. Both human constitutive proteasome and immunoproteasome were purchased from Boston Biochem Inc. 1 μL of 100× compound in DMSO at designated concentrations were spotted at the bottom of the wells. DMSO was used as a control. Final concentrations of the inhibitors were from 100 μM to 0.098 μM. The hydrolysis of the substrate over time in each well was monitored at excitation 360 nm, emission 460 nm for 90 minutes. IC50s were estimated by fitting the velocities of hydrolysis against compound concentrations using PRISM. […] Suc-LLVY-AMC was used for βc at final concentration of 25 μM, and Ac-ANW-AMC for b5i at final concentration of 15 μM. SDS (0.02%) was used as activator, and 0.01% BSA was used in the reaction buffer.
The foregoing features of these AsnEDA encouraged a further round of SAR studies (Table 5) based on varying the carboxylic acid at the ethylenediamine, the N-cap at the Asn, and the side chain of the Asn, based on PKS21004. All compounds listed in the Table 5 were synthesized as described in Examples 6-77. All final compounds were confirmed by NMR and HRMS. IC50s of all compounds against β5i and β5c (Table 5), β1i, β2i, β1c and β2c were determined following a reported method (Lin et al., “N,C-Capped Dipeptides With Selectivity for Mycobacterial Proteasome Over Human Proteasomes: Role of S3 and S1Binding Pockets,” J Am Chem Soc. 135:9968-9971 (2013), which is hereby incorporated by reference in its entirety). […] The [1,1′-biphenyl]-3-carboxamide of PKS21004 was then modified with the following substituents: 4′-fluoro (PKS21026), 4′-cyano (PKS21028), 4-fluoro (PKS21196), 4,3′-difluoro (PKS21195) and 4,2′-difluoro (PKS21187).

Plasmodium falciparum = experiment: Growth of Plasmodium falciparum in red blood cells (SYBR Green, 72 hours); type: cell-based
Method: Continuous in vitro cultures of Plasmodium falciparum: were maintained in human red blood cells (RBC) diluted to a hematocrit of 5% in RPMI 1640 medium with HEPES and Hypoxanthine and completed with 0.5% Albumax II (Invitrogen), 0.25% sodium bicarbonate, and 0.1 mg/ml gentamicin. Parasites were incubated at 37° C. in a gas mixture of 5% oxygen, 5% carbon dioxide, and 90% nitrogen.
Parasite sensitivity to novel compounds were determined using a SYBR Green (Invitrogen S1046) drug assay protocol. P. falciparum of various clinic stains were cultured with compounds at concentrations in a series of dilution in a clear, sterile 96-well plate for 72 hours. Subsequently, 150 μl of the cultures were transferred to a black 96-well plate and placed in the freezer for red blood cell lysis. The plates were thawed and suspended in a Sybr Green Lysis buffer. GraphPad Prism was used to analyze the raw data collected […]. Drug concentrations were converted to logarithms, normalized, and then curve fitted by non-linear regression to obtain EC50 values.
Plasmodium falciparum: parasites were cultured in human red cells. Drug assays were run in 96 well plates at a total volume of 200 μl. Assays were set up at a starting parasitemia (percent of infected red cells) of 0.5%. Test compounds were plated at concentrations of 2778 nM to 0.4 nM. The test plates were grown under standard low oxygen conditions at 37° C. for 72 hours. At that time the plates were prepared for growth determination, first the plates were frozen and thawed to lyse the red blood cells, 150 μl of the lysed thawed culture was transferred to a black 96 well plate, and mixed in a lysis buffer with SYBR green DNA dye. The fluorescence of each well was recorded in a plate reader with excitation wavelength 490 nm and emission wavelength 530 nm and normalized relative to DMSO control. The EC50s were determined using Prism software.

Pf Gametocytes = experiment: Gametocyte killing assay (DilC1(5), flow cytometry); type: cell-based; details: Plasmodium falciparum; NF54 peg4-tdTomato, 72 hour incubation; read-out: EC50 against Pf Gametocytes
Method: Asexual replication of NF54 peg4-tdTomato parasites was eliminated by treating with 50 mM GlcNAc and 20 U/mL Heparin for 3 days. NF54 peg4-tdTomato parasites then were maintained using standard culture techniques. Gametocytes were induced synchronously according to Fivelman et al., “Improved Synchronous Production of Plasmodium Falciparum Gametocytes in Vitro,” Mol Biochemo Parasitol. 154(1):119-123 (2007), which is hereby incorporated by reference in its entirety. Asexual replication was eliminated by treating with 50 mM GlcNAc for 3 days. Gametocyte killing assays were setup on days 5 and 10 in triplicate 96-well format at 1% hematocrit and 2% gametocytemia. Compounds were setup in triplicate and serially diluted 3-fold. In addition, 6 solvent controls (DMSO) were distributed evenly across the plate. Following a 72 hour incubation, Stage III-IV (Day 5-7) and Stage IV-V (Day 10-12), (start the incubation in the afternoon on Day 5 and Day 10, take out plate for assay on Day8 and Day13 afternoon) cultures were stained with 16 nM Hoechst 33342 and 50 nM DilC1(5) for 30 min at 37 C. Using a Cytek DxP12 flow cytometer, gametocytemia was determined by gating for DNA+, hemozoin-high cells and gametocyte viability was inferred based on mitochondrial membrane potential-dependent accumulation of DilC1(5) for 2000-3000 gametocytes (Tanaka et al., “Potent Plasmodium Falciparum Gametocytocidal Activity of Diaminonaphthoquinones, Lead Antimalarial Chemotypes Identified in an Antimalarial Compound Screen,” Antimicrob. Agents Chemother. 2015, 59:1389 (2015), which is hereby incorporated by reference in its entirety). Mean DilC1(5) signal was normalized to solvent control and the overall minimum and used to calculate the EC50 (FIG. 3 and Table 4).

Pf20S β5 = experiment: Labeling of Pf20S active subunits by activity probe MV151 in Pf lysates; type: biochemical, P. falciparum; details: 1 hour with inhibitor, then MV151 (2 μM) 1 hour
Method: Pf lysates were incubated with inhibitors at indicated concentrations for 1 hour prior to incubation with MV151 (2 μM) for an additional hour. SDS pages were scanned on a Typhoon fluorescent scanner. […] BTZ was used as a positive control.

hu i-20S β5i = molecular target: T3, hu i-20S β5i (Homo sapiens, UniProt P28062); experiment: Kinetic analysis, substrate titration of hu i-20S steady state velocities; type: biochemical
T3 construct: purchased Boston Biochem Inc
Method: FIGS. 1A-1E are graphs showing inhibition modality of PKS21004 against human proteasomes. Washout of c-20S from the preincubated c-20S and […] to recover the β5c activity (FIG. 1A). Substrate titration of hu i-20S (FIG. 1B) and c-20S (FIG. 1D) steady state velocities in the presence of PKS21004 at the concentrations indicated next to each curve. Data as in (FIG. 1B) were plotted double reciprocal in (FIG. 1C), and (FIG. 1D) in (FIG. 1E).
A washout experiment was used to confirm the reversibility of this class of proteasome inhibitors, as expected from their non-covalent chemistry.

[3] = molecular target: T4, β5i in Karpas 1106P cells (Homo sapiens, UniProt P28062); experiment: Intracellular β5i inhibition in Karpas 1106P cells ((Ac-ANW)2-R110); type: cell-based; details: 2 hours treatment
T4 construct: endogenous in cells; host or cells: Karpas 1106P
From the text: (§1) Data were average of three independent experiments.
(§2) IC50 values with both substrates were identical and indicated cell-penetrating ability. […] No β5i activity was detected in HepG2 cells using (Ac-ANW)2—R110 as substrate (FIG. 2A).

β5 in Karpas 1106P cells = experiment: Intracellular β5 inhibition in Karpas 1106P cells (suc-LLVY-luciferin); type: cell-based; details: 2 hours treatment
From the text: as §1, §2

β5c in HepG2 cells = molecular target: T5, β5c in HepG2 cells (Homo sapiens, UniProt P28074); experiment: Intracellular β5c inhibition in HepG2 cells (suc-LLVY-luciferin); type: cell-based; details: 2 hours treatment, read-out: IC50 HepG β5c
T5 construct: endogenous in cells; host or cells: HepG2
From the text: as §1, §2

[4] = tested on: MM1.S multiple myeloma cells; experiment: Cell viability assay, MM.1S; type: cell-based; details: Homo sapiens, cytotoxicity, 72 hours
Method: (§3) Multiple myeloma cell lines MM.1 S (200,000 cells/mL) and RPMI 8226 (200,000 cells/mL), B lymphoma cell line Karpas1106P (800,000 cells/mL), and liver cancer cell line HepG2 (12,000 cells/mL) were used to determine the cytotoxicity of compounds. Cells were cultured at 37° C. in a humidified air/5% CO2 atmosphere in medium supplemented with 10% fetal bovine serum, except for the medium for Karpas-1106P cells which contained 20% fetal bovine serum, and 100 units/ml penicillin/100 […] streptomycin in RPMI 1640 medium. 12,000 cells/well. Cells plated in a 96-well plate were treated with compounds at the indicated concentrations for 72 hours at 37° C. in a tissue culture incubator with 5% CO2. Viable cells were counted using Cell-titer/glom assay kit. EC50s were calculated using PRISM (Graphpad).

[5] = tested on: RPMI 8226 multiple myeloma cells; experiment: Cell viability assay, RPMI 8226; type: cell-based; details: Homo sapiens, cytotoxicity, 72 hours
Method: as §3

[6] = tested on: Karpas1106P B lymphoma cells; experiment: Cell viability assay, Karpas1106P; type: cell-based; details: Homo sapiens, Karpas-1106P; cytotoxicity, 72 hours
Method: as §3

HepG2 liver cancer cells = experiment: Cell viability assay, HepG2; type: cell-based; details: Homo sapiens, cytotoxicity, 72 hours
Method: as §3

[7] = β5i, substrate Ac-ANW-AMC, read-out: IC50 Hu i-20S (Ac-ANW-AMC)
[8] = β5c, substrate Suc-LLVY-AMC, read-out: IC50 Hu c-20S (Suc-LLVY-AMC)
[9] = Erythrocyte, P.f. 3D7, growth in red blood cells, read-out: EC50 (nM) (P.f.)

Compound: Cc1cc(C(=O)N[C@@H](CC(=O)NC(C)(C)C)C(=O)NCCNC(=O)c2cc(-c3ccccc3)ccn2)no1 [PKS21224]
- IC50 [1, 7]: 0.746 µM
- IC50 [2, 8]: 33.7 µM
- EC50 (Plasmodium falciparum; [9]): 11 nM
- EC50 (Pf Gametocytes): 0.162 µM

Compound: CC(C)(C)NC(=O)C[C@H](NC(=O)CCc1ccccc1)C(=O)NCCNC(=O)c1ccc(-c2ccccc2)cc1 [PKS21003]
- IC50 [1, 7]: > 100 µM
- IC50 [2, 8]: > 100 µM
- EC50 (Plasmodium falciparum; D6, Erythrocyte, read-out: EC50s against P. falciparum strain D6): > 2770 nM
- EC50 (Plasmodium falciparum; DD2, Erythrocyte, read-out: EC50s against P. falciparum strain Dd2): > 2770 nM
- EC50 (Plasmodium falciparum; [9]): > 2770 nM
- EC50 (Plasmodium falciparum; Erythrocyte, read-out: EC50s against P. falciparum strain IPC 3663): > 2770 nM
- EC50 (Plasmodium falciparum; Erythrocyte, read-out: EC50s against P. falciparum strain IPC 4884): > 2770 nM
- EC50 (Plasmodium falciparum; Erythrocyte, read-out: EC50s against P. falciparum strain IPC 5188): > 2770 nM
- EC50 (Plasmodium falciparum; Erythrocyte, read-out: EC50s against P. falciparum strain Sb1-a6): > 2770 nM
- EC50 (Plasmodium falciparum; Erythrocyte, read-out: EC50s against P. falciparum strain V1S): > 2770 nM
- EC50 (Plasmodium falciparum; HB3, Erythrocyte, read-out: EC50s against P. falciparum strain HB3): > 2770 nM
- labeling of Pf20S β5 by MV151 (Pf20S β5): did not

Compound: Cc1ccc(S(=O)(=O)N[C@@H](CC(=O)NC(C)(C)C)C(=O)NCCNC(=O)c2cc(-c3ccccc3F)ccc2F)cc1 [PKS21221]
- IC50 ([1]; IC50 Hu i-20S (Ac-ANW-AMC), β5i, substrate Ac-ANW-AMC): 0.0041 µM
- IC50 ([1]; b406, read-out: IC50 against β5i): 0.0024 µM
- IC50 [2]: 0.106 µM
- IC50 ([2]; b406, read-out: IC50 against β5c): 0.07 µM
- α for i-20S (β5i) (hu i-20S β5i; fit to equation for noncompetitive inhibitors): 0.26
- modality of inhibition of β5i (hu i-20S β5i; with respect to substrate): noncompetitively inhibits; also recorded: noncompetitive
- EC50 (Plasmodium falciparum; [9]): 0.55 nM
- IC50 [3]: 0.172 µM
- IC50 (β5 in Karpas 1106P cells): 0.118 µM
- IC50 (β5c in HepG2 cells): 2 µM
- EC50 [4]: 0.095 µM
- EC50 [5]: 0.075 µM
- EC50 [6]: 0.84 µM
- EC50 (HepG2 liver cancer cells): 3 µM

Compound: Cc1ccc(S(=O)(=O)N[C@@H](CC(=O)NC(C)(C)C)C(=O)NCCNC(=O)c2cc(-c3ccccc3)ccn2)cc1 [PKS21229]
- IC50 [1, 7]: 0.019 µM
- IC50 [2, 8]: 0.51 µM
- EC50 (Plasmodium falciparum; [9]): 1 nM
